Laboratory results reported in patent US20070071725A1, “Nitric oxide synthase gene transfer” (priority 2002, published 2007).
“Also recorded” adds a separate entry of the source.

What was measured:
[1] = system: right double atrial preparations; test: Heart rate (chronotropic) response of atrial preparations to carbachol; design: species or system rat
Experimental: Sutures (Ethicon, 5/0 mersilk) were placed at the lateral edges of both atria and the preparation was transferred to a pre-heated (37±0.1° C.) water-jacketed organ bath containing 100 ml of continuously oxygenated Tyrode's solution. The atria were vertically mounted with the suture in the left atrium connected to a stainless steel hook and the suture in the right atrium attached to an isometric force transducer (Harvard Apparatus, Model 60-2997, Mass. USA) connected to an amplifier. Heart rate was triggered from contraction and recorded in real time (Biopac MP100 with Acqknowledge software).
Preparations were equilibrated in Tyrode's solution for 60-90 minutes at 37° C. until a stable baseline heart rate was achieved. The right vagus was placed through a pair of custom-built platinum ring electrodes and stimulated at 3, 5, 7 and 10 Hz (15 V, 1 ms pulse duration; order of stimulations randomised) for 25 seconds, with an interval of at least 1 minute between successive stimulations. In some experiments vagal stimulation was repeated after application of the NO donor sodium nitroprusside (SNP; 20 μmol/L, 10 minutes incubation; Sigma). In addition, muscarinic responsiveness of atrial preparations was assessed using cumulative concentration-response curves to carbachol (0.1-0.5 μmol/L; Sigma; 2 minutes incubation at each concentration).

cGMP = cGMP efflux concentration in perfused right atrial preparation; design: species or system rat; details: 0.3 μmol/L, SHR vs WKY
Experimental: Isolated, perfused, beating atria were prepared by previously described method33,34. In brief, the right rat atrium was dissected from the heart after the animal was killed. A cannula containing 2 small catheters sealed within it was inserted into the atrium and secured by ligatures. The outer tip of the atrial cannula was open to allow for outflow. The cannulated atrium was transferred to a preheated (36.5 […]), continuously oxygenated, waterjacketed organ chamber, immediately perfused with oxygenated Tyrode's solution by means of a peristaltic pump (0.5 ml/min).
The atria were perfused for 60 minutes to stabilize. […]
The radioactivity of [^3H]inulin in atrial perfusate was measured with a liquid scintillation counter, and the amount of ECF translocated through the atrial wall was caculated, the amount of ECF translocated through the atrial wall was calculated as: ECF translocated (μl/min/g atrial wet wt)=total radioactivity in the perfusate (cpm/min)×1000/radioactivity in the pericardial reservoir (cpm/μl)×atrial wet wt (mg).
For measurement of cGMP concentration in perfusate, 500 μl of the perfusate was treated with trichloroacetic acid to a final concentration of 6% for 15 minutes at room temperature and centrifuged at 4° C. […] The amount of cGMP efflux was expressed as pmol cGMP/min/g atrial tissue. […]

isolated atria = test: [3H]ACh release from isolated atria on field stimulation; design: species or system rat; details: 10 μmol/L, 5 Hz field stimulation, WKY
Experimental: Animals were killed and the right atria removed as described above. The preparation was then transferred to a preheated (37 ??0.2 ?C), continuously oxygenated, water-jacketed organ bath containing 4 ml of Tyrode's solution where the atrium was pinned flat between two parallel silver stimulating electrodes 10 mm apart. […] After a 45 minutes equilibration period (where the Tyrode's solution was replaced every 15 minutes), the atrium was stimulated at 5 Hz (15V, 1 ms pulse duration) for one minute and then again after another minute to stimulate acetylcholine turnover. […]
Following the wash period superfusion was stopped and the bath solution replaced every 3 minutes with a 0.5 ml sample being taken on every change of solution. This sample was added to 4.5 ml of scintillation fluid (Ecoscint A, National Diagnostics) and the amount of radioactivity in each sample (disintegrations per minute) measured using a liquid scintillation counter (Tri-carb 2800TR, Packard). […] At the end of the experiment, the atrium was immersed overnight in Tyrode's solution containing 4 U/ml papain (Sigma) and the radioactivity contained in the extract determined. [3H] outflow was expressed as a percentage of the total radioactivity in the atrium at the end of the experiment and that released after superfusion.

isolated right atria = test: Evoked [3H]NE release from isolated right atria of SHR and WKY five days after percutaneous gene transfer; design: species or system rat; details: 10 μmol/L
isolated right atrium = system: isolated right atrium; design: species or system SD rat; details: 100 μM, Ad.PRS-nNOS treated atria, n=6

How did the “heart rate response, SHR compared to WKY” value ([1]; 0.1 μmol/L) turn out when `C[N+](C)(C)CCOC(N)=O` [CCh, carbachol] was run?
The value was “significantly increased heart rate response in SHR compared to WKY”.

And the “heart rate response, SHR compared to WKY” value ([1]; 0.2 μmol/L)?
Its value is “No significantly changed”.

And the “heart rate response, SHR compared to WKY” value ([1]; 0.5 μmol/L)?
Its value is “significantly increased heart rate response in SHR compared to WKY”.

And the cGMP efflux concentration (cGMP)?
The cGMP efflux concentration was “significantly increased cGMP efflux concentration in the SHR”.

Which “effect on [3H]ACh release” value (isolated atria) does the source give for `O=c1onc2cnc3ccccc3n12` [ODQ, 1H-(1,2,4)oxadiazolo(4,3-a)quinoxaline-1-one] here?
The value was “significantly enhanced”.

What about the “effect on NE release” value (isolated right atria; Ad.PRS-eGFP treated SHR) of the same molecule?
Its value is “did not effect”.

What about the “effect on NE release” value (isolated right atria; Ad.PRS-nNOS or Ad.PRS-eGFP treated WKY atria) of the same molecule?
Its value is “significantly enhanced”.

And the “effect on Ad.PRS-nNOS attenuation of NE release” value (isolated right atria; Ad.PRS-nNOS treated SHR)?
Its value is “reversed”.

With `NC(=NCCC[C@H](N)C(=O)O)N[N+](=O)[O-]` [L-NNA, Nω-Nitro-Larginine] as the molecule, how does the “effect on Ad.PRS-nNOS-induced attenuation of NE release” value (isolated right atrium) read?
The value was “prevented the Ad.PRS-nNOS-induced attenuation of NE release; also recorded: reverse this response”.
